Experiments:
sensitized mice = assay: Preliminary dose-response study of daily nebulized BUD in sensitized mice; type: in vivo; details: daily nebulization
Experimental: The dose of BUD chosen was based on preliminary dose-response studies with 5 to 50 μg of BUD as follows.
Each day, 5, 10, 15, 20 or 50 μg of BUD was administered via nebulization to groups of sensitized mice, and the dose-dependent effects on the inflammatory parameters were evaluated.

[1] = BUD alone; cited from earlier work

## CCCC1O[C@@H]2C[C@H]3[C@@H]4CCC5=CC(=O)C=C[C@]5(C)[C@H]4[C@@H](O)C[C@]3(C)[C@]2(C(=O)CO)O1 (stereo partly drawn) [Daily BUD, budesonide]
Sensitized mice; 20 μg/ml dose of BUD, histopathologic examination
  toxicity to the spleen, liver, bone morrow or gastrointestinal tract: without evidence of toxicity
Sensitized mice; preliminary dose-response study
  granulomas or abnormalities in tissues: no granulomas or abnormalities in any of the tissues evaluated
[1]
  effective life in the lungs: no more than one day

Source: patent publication US11324698B2, “Sterically stabilized carrier for aerosol therapeutics, compositions and methods for treating the respiratory tract of a mammal” (VGSK Technologies, Inc., priority 2003, dated 2022)
